Here are results for two compounds from patent US10759757B2, “Crystalline contrast agent for magnetic resonance imaging, kit and composition comprising it and their use” (Southern Medical University, priority 2016, dated 2020).

Assay [1] is described as follows: Longitudinal relaxation time (T1) measurement, r1 relaxivity in deionized water. The class given is physicochemical. The procedure:
IR spectra were recorded on a […] 550 infrared spectrometer. Elemental analyses for C, H, and N were performed on an EA1110 CHNS elemental analyzer. Thermogravimetric analysis (TGA) was performed on an SDTA851 Thermogravimetric Analyzer at a heating rate of 10° C. min^-1 under a nitrogen gas flow in an Al2O3 pan. Powder X-ray diffraction (PXRD) spectra were recorded with a Rigaku D/max-2200/PC. The X-ray generated from a sealed Cu tube was mono-chromated by a graphite crystal and collimated by a 0.5 mm MONOCAP (λ Cu-Kα=1.54178 Å). The tube voltage and current were 40 kV and 40 mA, respectively. […] The measurement of the longitudinal relaxation time T1 was conducted at 30° C. Five samples of compounds 1 and 2 were prepared with the concentrations of 31.25, 62.5, 125, 250, and 500 μM in deionized water, respectively. Before the T1 test, these samples were ultrasonicated for 2 min to dissolve the compounds homogeneously in deionized water. The T1 of deionized water was tested as background. The T1 of the MOF solution was corrected from the background. The measurement time of each sample was ca. 2 min. […] On each image, signal intensities were measured by drawing ROIs in the center of each vial. The T1 relaxation times were performed by fitting the acquired inversion recovery images to a following equation: […]1)), where M and M0 are measured and initial magnetization, respectively. […]

For assay [2] the following is noted: literature values; cited from earlier work.

Like-named read-outs stand apart in the source and are kept apart here.

Compound `O=C([O-])CN(CCN(CC(=O)[O-])CC(=O)O)CCN(CC(=O)[O-])CC(=O)O.[Gd+3]` [Gd-DTPA] displayed a r1 relaxivity in assay [1] (0.5 T, 30° C., deionized water, 31.25 to 500 μM) of 4.87 mM⁻¹ s⁻¹. Moreover, the “relaxivity rates (r1), MRI phantom measurement” value in assay [1] (3T, in water) was 4.98 mM^−1S^−1. As for `CNC(=O)CN(CCN(CCN(CC(=O)[O-])CC(=O)NC)CC(=O)[O-])CC(=O)[O-].[Gd+3]` [OmniScan], in assay [2], the r1 relaxivity was 4.1 mM⁻¹ s⁻¹.
